Measured values published in patent publication US20060069132A1, “Azolecarboxamide herbicides” (priority 2004, published 2006).
Where two headings read alike, the source gives them in different places.

How the values were obtained:
barnyardgrass [1] = test: Test B pre-/postemergence herbicide test; assay type: in vivo, Echinochloa crus-galli; conditions: Echinochloa crus-galli; for pest or weed control at 125 g/ha: 125 g ai/ha; for pest or weed control at 500 g/ha: 500 g ai/ha
Procedure, shortened: (§1)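 Test chemicals in a non-phytotoxic solvent mixture with surfactant were applied preemergence to seeded species and postemergence to plants 2-18 cm tall (1- to 4-leaf stage); rice and barnyardgrass were also tested in a flooded paddy at the 2-leaf stage. Visual rating versus controls after 13-15 days in greenhouse, scale 0 (no effect) to 100 (complete control).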

barnyardgrass [2] = test: Test B flooded paddy test; assay type: in vivo, Echinochloa crus-galli; conditions: Echinochloa crus-galli, 336 h, 1000 g ai/ha, scale 0 to 100 (0 no effect, 100 complete control), read-out: Barnyardgrass plant response rating
Procedure, shortened: (§2)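 Paddy species grown to the 2-leaf stage under flooding; blackgrass sprayed postemergence at 2–18 cm (1- to 4-leaf stage). Plants kept in a greenhouse for 13 to 15 days, then visually rated against controls on 0 (no effect) to 100 (complete control).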

large crabgrass = test: Test B pre-/postemergence herbicide test; assay type: in vivo, Digitaria sanguinalis; conditions: Digitaria sanguinalis; for pest or weed control at 125 g/ha: 125 g ai/ha; for pest or weed control at 500 g/ha: 500 g ai/ha
Procedure, shortened: (§3)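 Visual rating, 0 (no effect) to 100 (complete control), versus untreated controls after 13–15 d in greenhouse. Pre- and postemergence applications (postemergence plants 2–18 cm, 1–4 leaves); flooded paddy arm at 2-leaf stage. Compounds in non-phytotoxic solvent plus surfactant.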

giant foxtail = test: Test B pre-/postemergence herbicide test; assay type: in vivo, Setaria faberi; conditions: Setaria faberi, 336 h; for pest or weed control at 125 g/ha: 125 g ai/ha; for pest or weed control at 500 g/ha: 500 g ai/ha
Procedure, shortened: as §3

Surinam grass = test: Test B pre-/postemergence herbicide test; assay type: in vivo, Urochloa decumbens; conditions: Urochloa decumbens; for pest or weed control at 125 g/ha: 125 g ai/ha; for pest or weed control at 500 g/ha: 500 g ai/ha
Procedure, shortened: as §3

[3] = tested on: small flower umbrella sedge; test: Test B flooded paddy test; assay type: in vivo, Cyperus difformis; conditions: Cyperus difformis, 336 h, 1000 g ai/ha, scale 0 to 100 (0 no effect, 100 complete control), read-out: Sedge, Umbrella plant response rating
Procedure, shortened: as §2

cocklebur = test: Test B pre-/postemergence herbicide test; assay type: in vivo, Xanthium strumarium; conditions: Xanthium strumarium; for pest or weed control at 125 g/ha: 125 g ai/ha; for pest or weed control at 500 g/ha: 500 g ai/ha
Procedure, shortened: as §1

blackgrass = test: Test B postemergence herbicide test; assay type: in vivo, Alopecurus myosuroides; conditions: Alopecurus myosuroides, post-emergence, 336 h, postemergence, visual rating, scale 0 (no effect) to 100 (complete control), read-out: Blackgrass plant response rating
Procedure, shortened: as §2

velvetleaf = test: Test B pre-/postemergence herbicide test; assay type: in vivo, Abutilon theophrasti; conditions: Abutilon theophrasti, 336 h; for pest or weed control at 125 g/ha: 125 g ai/ha; for pest or weed control at 500 g/ha: 500 g ai/ha
Procedure, shortened: as §3

ducksalad = test: Test B flooded paddy test; assay type: in vivo, Heteranthera limosa; conditions: Heteranthera limosa, 336 h, 1000 g ai/ha, scale 0 to 100 (0 no effect, 100 complete control), read-out: Ducksalad plant response rating
Procedure, shortened: as §2

lambsquarters = test: Test B pre-/postemergence herbicide test; assay type: in vivo, Chenopodium album; conditions: Chenopodium album, 336 h; for pest or weed control at 125 g/ha: 125 g ai/ha
Procedure, shortened: as §3

wheat = test: Test B postemergence herbicide test; assay type: in vivo, Triticum aestivum; conditions: Triticum aestivum, post-emergence, 336 h, postemergence, read-out: Wheat plant response rating
Procedure, shortened: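 Scale 0–100: zero equals no visible effect, 100 complete control, judged by eye relative to controls. Timing: 13 to 15 days in greenhouse post-treatment. Growth stage at spraying: two leaves (paddy) or one to four leaves, 2–18 cm (postemergence).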

morningglory = test: Test B pre-/postemergence herbicide test; assay type: in vivo, Ipomoea coccinea; conditions: Ipomoea, 336 h; for pest or weed control at 125 g/ha: 125 g ai/ha; for pest or weed control at 500 g/ha: 500 g ai/ha
Procedure, shortened: as §1

rice = test: Test B flooded paddy test; assay type: in vivo, Oryza sativa; conditions: Oryza sativa, 336 h, 1000 g ai/ha, scale 0 to 100 (0 no effect, 100 complete control), read-out: Rice plant response rating
Procedure, shortened: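 Read-out: visual comparison with controls, scored 0 to 100, where 100 means complete control and 0 no effect. Formulated chemicals were applied postemergence to plants 2–18 cm tall (1- to 4-leaf), or to flooded-paddy plants at the 2-leaf stage, then held 13 to 15 days under glass.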

corn = test: Test B pre-/postemergence herbicide test; assay type: in vivo, Zea mays; conditions: Zea mays; for plant injury at 125 g/ha: 125 g ai/ha
Procedure, shortened: as §3

[4] = post-emergence, postemergence, visual rating, scale 0 (no effect) to 100 (complete control), read-out: Barnyardgrass plant response rating
[5] = post-emergence, postemergence, visual rating, scale 0 (no effect) to 100 (complete control), read-out: Cocklebur plant response rating

CCOC(=O)c1ccc(F)c(NC(=O)C2CC(C(C)(C)C)=NN2CC)c1 (stereo not shown) [Compound 267, ethyl 3-[[[3-(1,1-dimethylethyl)-1-ethyl-4,5-dihydro-1H-pyrazol-5-yl]carbonyl]amino]-4-fluorobenzoate]
pest or weed control at 125 g/ha (barnyardgrass [1]; [4]): 40% | pest or weed control at 500 g/ha (barnyardgrass [1]; [4]): 90% | pest or weed control at 125 g/ha (barnyardgrass [1]; pre-emergence, 0 = no effect, 100 = complete control, read-out: Barnyardgrass plant response rating (0 to 100 scale)): 20% | pest or weed control at 500 g/ha (barnyardgrass [1]; pre-emergence, visual rating, 0 = no effect, 100 = complete control, read-out: Plant response rating, Barnyardgrass): 70% | pest or weed control at 1000 g/ha (barnyardgrass [2]): 60% | pest or weed control at 125 g/ha (large crabgrass; post-emergence, postemergence, visual rating, scale 0 (no effect) to 100 (complete control), read-out: Crabgrass, Large plant response rating): 20% | pest or weed control at 500 g/ha (large crabgrass; post-emergence, postemergence, scale 0 to 100, 0 is no effect, 100 is complete control, read-out: Crabgrass, Large plant response rating): 40% | pest or weed control at 125 g/ha (large crabgrass; pre-emergence, 0 = no effect, 100 = complete control, read-out: Crabgrass, Large plant response rating (0 to 100 scale)): 40% | pest or weed control at 500 g/ha (large crabgrass; pre-emergence, visual rating, 0 = no effect, 100 = complete control, read-out: Plant response rating, Crabgrass, Large): 100% | pest or weed control at 125 g/ha (giant foxtail; post-emergence, postemergence, visual rating, scale 0 (no effect) to 100 (complete control), read-out: Foxtail, Giant plant response rating): 40% | pest or weed control at 500 g/ha (giant foxtail; post-emergence, postemergence, scale 0 to 100, 0 is no effect, 100 is complete control, read-out: Foxtail, Giant plant response rating): 50% | pest or weed control at 125 g/ha (giant foxtail; pre-emergence, 0 = no effect, 100 = complete control, read-out: Foxtail, Giant plant response rating (0 to 100 scale)): 30% | pest or weed control at 500 g/ha (giant foxtail; pre-emergence, visual rating, 0 = no effect, 100 = complete control, read-out: Plant response rating, Foxtail, Giant): 80% | pest or weed control at 125 g/ha (Surinam grass; post-emergence, postemergence, visual rating, scale 0 (no effect) to 100 (complete control), read-out: Surinam Grass plant response rating): 30% | pest or weed control at 500 g/ha (Surinam grass; post-emergence, postemergence, scale 0 to 100, 0 is no effect, 100 is complete control, read-out: Surinam Grass plant response rating): 50% | pest or weed control at 125 g/ha (Surinam grass; pre-emergence, 0 = no effect, 100 = complete control, read-out: Surinam Grass plant response rating (0 to 100 scale)): 10% | pest or weed control at 500 g/ha (Surinam grass; pre-emergence, visual rating, 0 = no effect, 100 = complete control, read-out: Plant response rating, Surinam Grass): 50% | pest or weed control at 1000 g/ha [3]: 70% | pest or weed control at 125 g/ha (cocklebur; [5]): 30% | pest or weed control at 500 g/ha (cocklebur; [5]): 90% | pest or weed control at 125 g/ha (cocklebur; pre-emergence, 0 = no effect, 100 = complete control, read-out: Cocklebur plant response rating (0 to 100 scale)): 0% | pest or weed control at 500 g/ha (cocklebur; pre-emergence, visual rating, 0 = no effect, 100 = complete control, read-out: Plant response rating, Cocklebur): 0% | pest or weed control at 125 g/ha (blackgrass; 125 g ai/ha): 20% | pest or weed control at 500 g/ha (blackgrass; 500 g ai/ha): 40% | pest or weed control at 125 g/ha (velvetleaf; post-emergence, postemergence, visual rating, scale 0 (no effect) to 100 (complete control), read-out: Velvetleaf plant response rating): 50% | pest or weed control at 500 g/ha (velvetleaf; post-emergence, postemergence, scale 0 to 100, 0 is no effect, 100 is complete control, read-out: Velvetleaf plant response rating): 70% | pest or weed control at 125 g/ha (velvetleaf; pre-emergence, 0 = no effect, 100 = complete control, read-out: Velvetleaf plant response rating (0 to 100 scale)): 20% | pest or weed control at 500 g/ha (velvetleaf; pre-emergence, visual rating, 0 = no effect, 100 = complete control, read-out: Plant response rating, Velvetleaf): 50% | pest or weed control at 1000 g/ha (ducksalad): 0% | pest or weed control at 125 g/ha (lambsquarters; post-emergence, postemergence, visual rating, scale 0 (no effect) to 100 (complete control), read-out: Lambsquarters plant response rating): 30% | pest or weed control at 500 g/ha (lambsquarters; post-emergence, postemergence, 500 g ai/ha, scale 0 to 100, 0 is no effect, 100 is complete control, read-out: Lambsquarters plant response rating): 50% | pest or weed control at 125 g/ha (lambsquarters; pre-emergence, 0 = no effect, 100 = complete control, read-out: Lambsquarters plant response rating (0 to 100 scale)): 0% | plant injury at 125 g/ha (wheat; 125 g ai/ha, visual rating, scale 0 (no effect) to 100 (complete control)): 20% | plant injury at 500 g/ha (wheat; 500 g ai/ha, scale 0 to 100, 0 is no effect, 100 is complete control): 30% | pest or weed control at 125 g/ha (morningglory; post-emergence, postemergence, visual rating, scale 0 (no effect) to 100 (complete control), read-out: Morningglory plant response rating): 30% | pest or weed control at 500 g/ha (morningglory; post-emergence, postemergence, scale 0 to 100, 0 is no effect, 100 is complete control, read-out: Morningglory plant response rating): 40% | pest or weed control at 125 g/ha (morningglory; pre-emergence, 0 = no effect, 100 = complete control, read-out: Morningglory plant response rating (0 to 100 scale)): 20% | pest or weed control at 500 g/ha (morningglory; pre-emergence, visual rating, 0 = no effect, 100 = complete control, read-out: Plant response rating, Morningglory): 30% | plant injury at 1000 g/ha (rice): 70% | plant injury at 125 g/ha (corn; post-emergence, postemergence, visual rating, scale 0 (no effect) to 100 (complete control), read-out: Corn plant response rating): 20% | plant injury at 500 g/ha (corn; post-emergence, postemergence, 500 g ai/ha, scale 0 to 100, 0 is no effect, 100 is complete control, read-out: Corn plant response rating): 40% | plant injury at 125 g/ha (corn; pre-emergence, 0 = no effect, 100 = complete control, read-out: Corn plant response rating (0 to 100 scale)): 0% | Corn plant response rating (crop injury, 0 = no effect, 100 = complete kill) at 500 g/ha (corn; pre-emergence, 500 g ai/ha, visual rating, 0 = no effect, 100 = complete control): 20%
